Experimental data: patent publication US20250213542A1, “DEVICES AND METHODS FOR DELIVERING SYNERGISTIC ACTIVE AGENTS TO TARGET SITES” (IRRIMAX Corporation, priority 2023, published 2025)
Where a name gives a salt, the structure may show the parent alone. Read-outs that look alike come from different tables or passages of the source.

Experiments:
Format in all cases: cell-based
[1] = test system: E. coli (ATCC BAA 1427); assay: Minimum inhibitory concentration determination, serial 2-fold dilution; settings: Escherichia coli
Procedure: (§1) The minimal inhibitory concentration (MIC, the minimum inhibitory concentration required for 90% growth reduction) of octenidine was determined against S. aureus (ATCC 6538), P. aeruginosa (ATCC 15442), and E. coli (ATCC BAA 1427) by serial 2-fold dilution experiments. A solution of chlorhexidine (0.025% w/w) was used as a positive control and comparator.

[2] = test system: P. aeruginosa (ATCC 15442); assay: as above; settings: Pseudomonas aeruginosa, ATCC15442, P. aeruginosa (ATCC 15442)
Procedure: as §1

[3] = test system: S. aureus (ATCC 6538); assay: as above; settings: Staphylococcus aureus, ATCC6538, S. aureus (ATCC 6538)
Procedure: as §1

[4] = test system: E. coli (ATCC BAA 1427); assay: Minimal bactericidal concentration determination, serial 2-fold dilution; settings: E. coli (ATCC BAA 1427); for Number of Colonies: average of triplicate
Procedure: (§2) The minimal bactericidal concentration (MBC) of octenidine dihydrochloride was determined against S. aureus (ATCC 6538), P. aeruginosa (ATCC 15442), and E. coli (ATCC BAA 1427) by serial 2-fold dilution experiments. A solution of chlorhexidine (0.025% w/w) was used as a positive control and comparator.

[5] = test system: P. aeruginosa (ATCC 15442); assay: as above; settings: for Number of Colonies: average of triplicate
Procedure: as §2

[6] = test system: S. aureus (ATCC 6538); assay: as above; settings: for Number of Colonies: average of triplicate
Procedure: as §2

[7] = test system: E. coli; assay: Chequerboard assay, FIC and synergy analysis; settings: Escherichia coli
Procedure: (§3) Chlorhexidine gluconate (CHG) and octenidine dihydrochloride (OCT) were analyzed by chequerboard assay with each test organism to determine potential additive, synergistic, and antagonistic activity. The test organisms S. aureus, P. aeruginosa, and E. coli were tested at ranges of chlorhexidine gluconate (0.122-15.625 μg/ml, 1.25-160 μg/ml, and 0.125-16 μg/ml, respectively) and octenidine dihydrochloride (0.029-3.75 μg/mL, 0.029-3.75 μg/mL, and 0.029-3.75 μg/mL, respectively). FIC was calculated by the following Equation 2: […]

[8] = test system: P. aeruginosa; assay: Chequerboard assay, FIC and synergy analysis; settings: Pseudomonas aeruginosa, P. aeruginosa, chequerboard
Procedure: as §3

[9] = test system: S. aureus; assay: Chequerboard assay, FIC and synergy analysis; settings: Staphylococcus aureus
Procedure: as §3

[10] = 0.46875 μg/mL, read-out: Average Growth Inhibition (%)
[11] = 0.9375 μg/mL, read-out: Average Growth Inhibition (%)
[12] = 1.875 μg/mL, read-out: Average Growth Inhibition (%)
[13] = 3.75 μg/mL, read-out: Average Growth Inhibition (%)
[14] = 7.5 μg/mL, read-out: Average Growth Inhibition (%)
[15] = 15 μg/mL, read-out: Average Growth Inhibition (%)
[16] = 30 μg/mL, read-out: Average Growth Inhibition (%)
[17] = 60 μg/mL, read-out: Average Growth Inhibition (%)
[18] = read-out: MIC (inhibited greater than 90% growth)
[19] = in presence of CHG, read-out: MIC of OCT in Presence of CHG

SMILES: CCCCCCCCN=c1ccn(CCCCCCCCCCn2ccc(=NCCCCCCCC)cc2)cc1 [Octenidine dihydrochloride, 1-Octanamine, N,N′-(1,10-decanediyldi-1(4H)-pyridinyl-4-ylidene)bis-]
- inhibition at 0.46875 µg/mL ([1]; BAA1427, 0.46875 μg/mL, read-out: Average Growth Inhibition (%)): 6%
- inhibition at 0.9375 µg/mL ([1]; BAA1427, 0.9375 μg/mL, read-out: Average Growth Inhibition (%)): 12%
- inhibition at 1.875 µg/mL ([1]; BAA1427, 1.875 μg/mL, read-out: Average Growth Inhibition (%)): 100%
- inhibition at 3.75 µg/mL ([1]; BAA1427, 3.75 μg/mL, read-out: Average Growth Inhibition (%)): 100%
- inhibition at 7.5 µg/mL ([1]; BAA1427, 7.5 μg/mL, read-out: Average Growth Inhibition (%)): 100%
- inhibition at 15 µg/mL ([1]; BAA1427, 15 μg/mL, read-out: Average Growth Inhibition (%)): 99%
- inhibition at 30 µg/mL ([1]; BAA1427, 30 μg/mL, read-out: Average Growth Inhibition (%)): 97%
- inhibition at 60 µg/mL ([1]; BAA1427, 60 μg/mL, read-out: Average Growth Inhibition (%)): 91%
- MIC ([1]; BAA1427, read-out: MIC (inhibited greater than 90% growth)): 1.88 µg/mL
- inhibition at 0.46875 µg/mL [2, 10]: 2%
- inhibition at 0.9375 µg/mL [2, 11]: 4%
- inhibition at 1.875 µg/mL [2, 12]: 100%
- inhibition at 3.75 µg/mL [2, 13]: 100%
- inhibition at 7.5 µg/mL [2, 14]: 100%
- inhibition at 15 µg/mL [2, 15]: 99%
- inhibition at 30 µg/mL [2, 16]: 97%
- inhibition at 60 µg/mL [2, 17]: 91%
- MIC [2, 18]: 1.88 µg/mL
- inhibition at 0.46875 µg/mL [3, 10]: 50%
- inhibition at 0.9375 µg/mL [3, 11]: 101%
- inhibition at 1.875 µg/mL [3, 12]: 101%
- inhibition at 3.75 µg/mL [3, 13]: 101%
- inhibition at 7.5 µg/mL [3, 14]: 98%
- inhibition at 15 µg/mL [3, 15]: 97%
- inhibition at 30 µg/mL [3, 16]: 92%
- inhibition at 60 µg/mL [3, 17]: 73%
- MIC [3, 18]: 0.938 µg/mL
- CFU/mL ([4]; 0.46875 μg/mL): Lawn (‘Lawn’indicates too many colonies to accurately count (e.g., greater than 250 colonies on an agar plate))
- Number of Colonies ([4]; 0.46875 μg/mL): Lawn (‘Lawn’indicates too many colonies to accurately count (e.g., greater than 250 colonies on an agar plate))
- CFU/mL ([4]; 0.9375 μg/mL): Lawn (‘Lawn’indicates too many colonies to accurately count (e.g., greater than 250 colonies on an agar plate))
- Number of Colonies ([4]; 0.9375 μg/mL): Lawn (‘Lawn’indicates too many colonies to accurately count (e.g., greater than 250 colonies on an agar plate))
- CFU/mL ([4]; 1.875 μg/mL): 0 CFU/mL
- Number of Colonies ([4]; 1.875 μg/mL): 0
- CFU/mL ([4]; 3.75 μg/mL): 0 CFU/mL
- Number of Colonies ([4]; 3.75 μg/mL): 0
- CFU/mL ([4]; 7.5 μg/mL): 0 CFU/mL
- Number of Colonies ([4]; 7.5 μg/mL): 0
- CFU/mL ([4]; 15 μg/mL): 0 CFU/mL
- Number of Colonies ([4]; 15 μg/mL): 0
- CFU/mL ([4]; 30 μg/mL): 0 CFU/mL
- Number of Colonies ([4]; 30 μg/mL): 0
- CFU/mL ([4]; 60 μg/mL): 0 CFU/mL
- Number of Colonies ([4]; 60 μg/mL): 0
- MBC ([4]; Escherichia coli, BAA1427, read-out: MBC (concentration having less than 500 CFU/mL)): 1.88 µg/mL
- CFU/mL ([5]; 0.46875 μg/mL): Lawn (‘Lawn’indicates too many colonies to accurately count (e.g., greater than 250 colonies on an agar plate))
- Number of Colonies ([5]; 0.46875 μg/mL): Lawn (‘Lawn’indicates too many colonies to accurately count (e.g., greater than 250 colonies on an agar plate))
- CFU/mL ([5]; 0.9375 μg/mL): Lawn (‘Lawn’indicates too many colonies to accurately count (e.g., greater than 250 colonies on an agar plate))
- Number of Colonies ([5]; 0.9375 μg/mL): Lawn (‘Lawn’indicates too many colonies to accurately count (e.g., greater than 250 colonies on an agar plate))
- CFU/mL ([5]; 1.875 μg/mL): 966.67 CFU/mL
- Number of Colonies ([5]; 1.875 μg/mL): 9.667
- CFU/mL ([5]; 3.75 μg/mL): 0 CFU/mL
- Number of Colonies ([5]; 3.75 μg/mL): 0
- CFU/mL ([5]; 7.5 μg/mL): 0 CFU/mL
- Number of Colonies ([5]; 7.5 μg/mL): 0
- CFU/mL ([5]; 15 μg/mL): 0 CFU/mL
- Number of Colonies ([5]; 15 μg/mL): 0
- CFU/mL ([5]; 30 μg/mL): 0 CFU/mL
- Number of Colonies ([5]; 30 μg/mL): 0
- CFU/mL ([5]; 60 μg/mL): 0 CFU/mL
- Number of Colonies ([5]; 60 μg/mL): 0
- MBC ([5]; Pseudomonas aeruginosa, ATCC15442, read-out: MBC (concentration having less than 500 CFU/mL)): 3.75 µg/mL
- CFU/mL ([6]; 0.46875 μg/mL): Lawn (‘Lawn’indicates too many colonies to accurately count (e.g., greater than 250 colonies on an agar plate))
- Number of Colonies ([6]; 0.46875 μg/mL): Lawn (‘Lawn’indicates too many colonies to accurately count (e.g., greater than 250 colonies on an agar plate))
- CFU/mL ([6]; 0.9375 μg/mL): 0 CFU/mL
- Number of Colonies ([6]; 0.9375 μg/mL): 0
- CFU/mL ([6]; 1.875 μg/mL): 0 CFU/mL
- Number of Colonies ([6]; 1.875 μg/mL): 0
- CFU/mL ([6]; 3.75 μg/mL): 566.67 CFU/mL
- Number of Colonies ([6]; 3.75 μg/mL): 5.6667
- CFU/mL ([6]; 7.5 μg/mL): 0 CFU/mL
- Number of Colonies ([6]; 7.5 μg/mL): 0
- CFU/mL ([6]; 15 μg/mL): 0 CFU/mL
- Number of Colonies ([6]; 15 μg/mL): 0
- CFU/mL ([6]; 30 μg/mL): 0 CFU/mL
- Number of Colonies ([6]; 30 μg/mL): 0
- CFU/mL ([6]; 60 μg/mL): 0 CFU/mL
- Number of Colonies ([6]; 60 μg/mL): 0
- MBC ([6]; Staphylococcus aureus, ATCC6538, read-out: MBC (concentration having less than 500 CFU/mL)): 0.938 µg/mL
- MIC [7, 19]: 0.029 µg/mL
- MIC ([7]; read-out: MIC of OCT Alone): 1.88 µg/mL
- MIC [8, 19]: 0.938 µg/mL
- MIC ([8]; read-out: MIC of OCT Alone): 1.88 µg/mL
- MIC [9, 19]: 0.234 µg/mL
- MIC ([9]; read-out: MIC of OCT Alone): 0.938 µg/mL
